# Assay results taken from patent EP0392745B1, “Immunoconjugates and prodrugs and their use in association for drug delivery” (CELLTECH LIMITED, priority 1989, dated 1990).
# pIC50: −log10 of the molar value. Like-named read-outs stand apart in the source and are kept apart here.
# Tests used:
# [1] = tested on: Mouse lymphoma cells, line L5178Y clone 3.7.2.C; assay: Cell tissue culture cytotoxicity assay of relative drug/prodrug toxicity; type: cell-based
# Experimental: A tissue culture assay using a mouse lymphoma cell line [Phillips (1974), Biochem. Pharmacol. 23, 131-138] was used to determine the relative toxicity of drug and prodrug samples. The cepholosporin - prodrugs tested were those of Example 2,5,6 - 10 and 12.
# For compounds of Examples 2, and 7-10 the corresponding non-cephalosporin linked drug was tested. In the case of compounds of Examples 5, 6 and 12 the drug portion of the prodrug was generated in situ in the assay by the addition of the enzyme β-lactamase as indicated below.
# Mouse lymphoma cells, line L5178Y clone 3.7.2.C, was used for these studies. This clone was derived from the L5178Y wild-type line and is heterozygous for the thymidine kinase locus. It is widely used for assays of mutation to thymidine analogue resistance (loss of thymidine kinase). Stocks were maintained frozen in liquid nitrogen and recovered 7 days before the start of the study.
# The cells were grown in RPMI 1640 medium buffered with 25 mM HEPES, and supplemented with 10% horse serum, 1mM sodium pyruvate, and 0.05% Pluriol (PF 6800 from BASF). In most cases, penicillin (100 iu/ml) and streptomycin (100µg/ml) were also included in the medium. Stock cultures were maintained by subculture into fresh medium every 2-3 days. Incubation was at 37 °C in an atmosphere of 5% CO₂ in air. Under these conditions, the cells grew as a static cell suspension with a population doubling time (cell cycle time) of 10-12 hr.
# A growing culture, at a cell density of 1-2 x 10⁶/ml, was diluted with fresh medium to a density of 5 x 10⁵ cells/ml. An appropriate number of universal bottles was prepared with 4.5ml medium and O.5ml cell suspension to give a final cell concentration of 5 x 10⁴ cells/ml. In some tests, the cells were centrifuged and resuspended in Hank's Balanced Salt Solution (HBSS) to allow treatment in a simpler medium. […]
# Cell growth was expressed as the number of population doublings (PD) achieved during a given time period ( t hrs ), calculated as follows: [drawing 5]
# Growth relative to control ( % G ) was calculated for each treatment as follows: [drawing 6] […]
# [2] = tested on: O=C(Cc1cccs1)N[C@@H]1C(=O)N2C(C(=O)O)=C(CSc3ncnc4[nH]cnc34)CS[C@H]12; assay: purified protein, by the assay type; settings: 37.0 °C
molecule,measurement,setting,value
"Nc1nc2nc[nH]c2c(=S)[nH]1 [Thioguanine (drug), Thioguanine, reference compound]",pIC50,"[1]; Mus musculus, L5178Y, read-out: ID50",6.28
β-lactamase (E.coli RTEM) (Escherichia coli),Km,[2],138 µM
"Nc1nc(SCC2=C(C(=O)O)N3C(=O)[C@@H](NC(=O)Cc4cccs4)[C@H]3SC2)c2[nH]cnc2n1 [Example 9, 3-(Guanin-6-ylthiomethyl)-7β-(2-acetamido)-3-cephem-4-carboxylic acid]",Differential Toxicity (ID50 Prodrug/drug),[1]; mouse lymphoma L5178Y cells,13
same,pIC50,"[1]; mouse lymphoma L5178Y cells, growth relative to control, read-out: ID50 (the source's name)",5.19
